Consider 5 compounds from patent US9988680B2, “Non-natural nucleosides as theranostic agents” (Case Western Reserve University, priority 2011, dated 2018).

Converted amounts (≈) assume the structure as drawn.

The test system of data set [1] is MOLT4 cells. Briefly: In situ click reaction with AlexaFluor488-azide, flow cytometry, MOLT4. It counts as cell-based. The method, then:
(§1) In situ “click” reactions were performed using cells harvested after 2 days of treatment with DMSO, 3-Eth-5-NIdR (10, 40, or 100 μg mL^−1), 5-NIdR (100 μg mL^−1) or 5-ethynyl-2′-deoxyuridine (EdU) (10 μM). All cells were fixed with cold methanol. Under minimal lighting, cells were treated with 0.3 mL of saponin-based permeabilization and wash buffer for 45 min at 37° C. Click reactions were initiated by adding the click-iT reaction cocktail according to the instructions of the manufacturer (Invitrogen) followed by incubation at 37° C. for 90 min. Cells were then washed two times with saponin-based permeabilization and wash buffer. Cell pellets were dislodged using 0.5 mL solution of 10 μg mL^−1 PI and RNAase A in saponin-based permeabilization and wash buffer and then incubated for at least 15 min prior to flow cytometry analysis.
MOLT4 cells were treated with DMSO, EdU (a “clickable” thymidine analogue), 5-NIdR, and 3-Eth-5-NIdR for 2 days and then washed with PBS to remove any nucleoside and/or nucleotide not incorporated into DNA. After fixation and permeabilization, the cells were treated with AlexaFluor488-azide and Cu(I) catalyst to commence “clicking” of any incorporated nonnatural nucleotide. Dual parameter flow cytometry applying PI staining coupled with detection of the AlexaFluor488 fluorophore was used to detect the “clicked” non-natural nucleotide in cellular DNA. […] This high amount of “clicked” DNA reflects transport of EdU into the cell, conversion to the corresponding nucleoside triphosphate, and incorporation into the DNA of replicating cells. MOLT4 cells treated with 10 μg mL^−1 3-Eth-5-NIdR also show appreciable levels of AlexaFluor488 stained DNA (2.8%) after 2 days of treatment. Furthermore, the amount of “clicked” DNA is dosedependent as treatment with 40 μg mL^−1 Eth-5-NIdR yields a […] increase in AlexaFluor488 staining (6.5%). Identical experiments were performed using the Loucy cell line that lacks TdT and thus is less sensitive to the cytotoxic effects of the non-natural nucleoside (vide inf ra). […] Treatment with 40 μg mL^−1 of 3-Eth-5-NIdR produces low levels of “clicked” DNA (0.02%). […] Once incorporated into DNA, the non-natural nucleotide inhibits cellular DNA replication and induces apoptosis. Finally, it should be emphasized that low levels (<0.5%) of AlexaFluor488 staining are detected in cells treated with 100 μg mL^−1 5-NIdR.

In data set [2] the test system is Loucy cells. Nature of the data set: In situ click reaction with AlexaFluor488-azide, flow cytometry, Loucy. It counts as cell-based. As to conditions: 10 μM, 2 days. The method, then:
as §1
MOLT4 cells were treated with DMSO, EdU (a “clickable” thymidine analogue), 5-NIdR, and 3-Eth-5-NIdR for 2 days and then washed with PBS to remove any nucleoside and/or nucleotide not incorporated into DNA. After fixation and permeabilization, the cells were treated with AlexaFluor488-azide and Cu(I) catalyst to commence “clicking” of any incorporated nonnatural nucleotide. […] Finally, it should be emphasized that low levels (<0.5%) of AlexaFluor488 staining are detected in cells treated with 100 μg mL^−1 5-NIdR.
(Flow cytometry measures light scatter and fluorescence of single cells or particles in a stream.)

Data set [3] addresses terminal deoxynucleotidyl transferase (TdT) (Bos taurus, UniProt P06526). Briefly: Incorporation of natural and non-natural nucleotides by TdT (polymerization assay, Michaelis-Menten kinetics). It counts as biochemical. The note with it: for Km / Vmax: incorporation by TdT, 1.5 μM single-stranded DNA substrate. The method, then: All enzymatic assays were performed as previously described. […] Reactions were quenched with 200 Mm EDTA at variable times (5-600 s) and analyzed using denaturing gel electrophoresis. Time courses in product formation were fitted using eq 1: Y=mt+b(1) (1)
where y is the amount of product, m is the rate of the reaction, t is time, and b is the Y-intercept. Km and Vmax values were determined by fits of the data points to the Michaelis-Menten equation: […]
where Vmax is the maximal rate of nucleotide incorporation, Km is the Michaelis constant for dNTP, and [dNTP] is the concentration of nucleotide substrate. The IC50 value for 3-Eth-5-NITP was obtained using a nonlinear regression curve fit of the data to eq 3:
The biological function of TdT is to expand immunological diversity by randomly incorporating dNTPs into single-stranded DNA during V(D)J recombination. […] TdT also utilizes nucleotide analogues including 2′,3′-dideoxynucleotides, dinucleoside 5′,5′-tetraphosphates, and intrinsically fluorescent nucleotide analogues. In this report, we tested if TdT also incorporates indolyl-2′-deoxyribose-5′-triphosphates that bear non-natural moieties such as ethynyl and nitro groups at the 3- and 5-position, respectively, of the indole base. […] Aliquots of the reaction were quenched with EDTA at variable time points, and the polymerization reactions were then subjected to denaturing polyacrylamide gel electrophoresis to separate extended primers from unreacted substrate.
Time courses in product formation were generated using pseudo-first order reaction conditions in which 6 units of TdT were incubated with 1.5 μM DNA substrate and mixed with variable concentrations of non-natural nucleotide (0.05-50 μM). Each time course was fit to an equation for a straight line to define the rate of nucleotide incorporation (data not shown).

The test system of data set [4] is Loucy cells. Briefly: Cell proliferation assay (trypan blue), Loucy. It counts as cell-based. The method, then: (§2) Cells were seeded at a population density of ˜200,000 cells mL-1 and treated with variable concentrations of non-natural nucleoside (0.1-100 μg mL-1) for up to 72 h. The final DMSO concentration in all experiments was 0.1%. Cell viability was assessed via trypan blue staining and counting the number of viable (clear) versus non-viable (blue) cells under a microscopy using a hemocytometer. The IC50 values for both nonnatural nucleosides were obtained using a nonlinear regression curve fit of the data to eq 3. LD50 values for the non-natural nucleosides were calculated using identical approaches.

The test system of data set [5] is RS4(11) cells. Nature of the data set: Cell proliferation assay (trypan blue), RS4(11). It counts as cell-based. As to conditions: up to 72 h. The method, then: as §2
(§3) Identical cell-based experiments were performed with the other ALL cell lines, and the corresponding IC50 and LD50 values for 5-NIdR and 3-Eth-5-NIdR against each cell line are summarized in Table 2. […] The increased potency of 3-Eth-5-NIdR likely reflects the higher catalytic efficiency for the corresponding nucleoside triphosphate to act as a chain-terminating substrate for TdT. […] In general, there is an excellent correlation (R^2=0.695, p<0.0001) between the anti-cancer effects of the non-natural nucleoside with TdT level. Similar analyses were performed by plotting the LD50 values of 3-Eth-5-NIdR as a function of TdT content (FIG. 3E).

Data set [6] relates to MOLT4 cells. Nature of the data set: Apoptosis measurement (Annexin V-Alexa Fluor 488 / propidium iodide flow cytometry). It counts as cell-based. The method, then:
Cells were treated with DMSO (vehicle), 5-NIdR (100 μg mL-1), and 3-Eth-5-NIdR (10 and 40 μg mL-1) as described above. Cells were harvested by centrifugation and washed in phosphate-buffered saline and resuspended in 100 μL of binding buffer containing AnnexinV-Alexa Fluor 488 conjugate. Cells were treated with propidium iodide (PI) and incubated at RT for 15 min followed by flow cytometry analysis. This enables live cells (unstained with either Alexa Fluor 488 or PI) to be discriminated from early apoptotic (stained with Alexa Fluor 488), late apoptotic cells (stained with Alexa Fluor 488 and PI), and necrotic cells (stained with PI).
The mechanism by which these non-natural nucleosides induce cell death was interrogated using dual parameter FACS analyses measuring propidium iodide uptake and Alexa Fluor488 annexin V conjugate staining. This allows live cells (unstained with either fluorophore) to be distinguished from cells that are early apoptotic (annexin V staining only), late apoptotic (propidium iodide and annexin V staining), and necrotic (propidium iodide staining only). […] In this case, treatment with 100 μg mL^−1 5-NIdR causes a 5-fold increase in early and late stage apoptosis, respectively. […] The induction of apoptosis was also independently confirmed by using agarose gel electrophoresis to observe DNA cleavage sites between nucleosomes that occur in chromatin at ˜200-base pair intervals.

Data set [7] relates to MOLT4 cells. Briefly: Cell proliferation assay (trypan blue, viable vs non-viable cells), MOLT4. It counts as cell-based. The method, then:
as §2
This hypothesis was tested by measuring the cytostatic and/or cytotoxic effects of the corresponding nucleoside, 3-Eth-5-NIdR, and 5-nitroindolyl-2′-deoxynucleoside (5-NIdR) against various ALL cell lines including MOLT4, CEM-C7, Jurkat, RS4(11), JS45.01, and Loucy. Western blot analyses was first performed to determine TdT levels in each ALL cell line. […] We next tested the efficacy of 5-NIdR and 3-Eth-5-NIdR by treating exponentially growing cells with variable concentrations (0.1-100 μg mL^−1) of each non-natural nucleoside for time periods of up to 3 days.

Data set [8] concerns CEM-C7 cells. Briefly: Cell proliferation assay (trypan blue), CEM-C7. It counts as cell-based. The note with it: CEM-C7, up to 72 h. The method, then: as §2, §3
Data set [9] relates to Jurkat cells. Nature of the data set: Cell proliferation assay (trypan blue), Jurkat. It counts as cell-based. As to conditions: up to 72 h. The method, then:
as §2, §3

Data set [10] concerns J45.01 cells. Nature of the data set: Cell proliferation assay (trypan blue), J45.01. As to conditions: J45.01, up to 72 h. It counts as cell-based. The method, then:
as §2, §3

Setting [11] is: Loucy (TdT-negative), up to 72 h.
The mark [12] stands for this setting: MOLT4, 100 μg mL^−1, compared to DMSO.
Where [13] appears, read: MOLT4, 100 μg mL^−1, 2 days post-treatment.

Sequence of terminal deoxynucleotidyl transferase (TdT) (P06526 whole entry): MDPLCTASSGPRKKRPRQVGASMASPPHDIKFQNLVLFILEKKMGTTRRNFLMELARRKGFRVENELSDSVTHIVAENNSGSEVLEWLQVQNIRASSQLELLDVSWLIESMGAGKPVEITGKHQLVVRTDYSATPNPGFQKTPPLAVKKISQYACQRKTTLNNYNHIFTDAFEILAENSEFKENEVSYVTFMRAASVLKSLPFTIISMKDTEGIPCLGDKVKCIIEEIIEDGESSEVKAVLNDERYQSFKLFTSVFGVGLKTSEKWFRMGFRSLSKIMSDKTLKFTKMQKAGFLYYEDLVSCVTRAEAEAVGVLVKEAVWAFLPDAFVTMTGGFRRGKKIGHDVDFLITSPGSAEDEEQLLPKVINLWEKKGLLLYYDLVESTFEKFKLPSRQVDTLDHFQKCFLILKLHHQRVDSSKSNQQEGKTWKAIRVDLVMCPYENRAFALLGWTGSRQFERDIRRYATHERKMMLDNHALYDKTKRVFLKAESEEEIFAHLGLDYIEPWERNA

For the compound `C#Cc1cn([C@H]2C[C@H](O)[C@@H](CO)O2)c(=O)[nH]c1=O` [EdU, 5-ethynyl-2′-deoxyuridine, reference compound], the “AlexaFluor488 stained (clicked) DNA” value in data set [1] (MOLT4, 10 μM, 2 days) stood at 36.1%. For the same compound, the “AlexaFluor488 staining (clicked DNA)” value in data set [2] is 59.2%.
In general, Km refers to the substrate concentration at which the rate is half of its maximum. Broadly, the Vmax is the top rate of the reaction or transport when substrate is in excess. `O=[N+]([O-])c1ccc2c(ccn2C2CC(O)C(COP(=O)(O)OP(=O)(O)OP(=O)(O)O)O2)c1` (stereo not shown) [5-NITP]: the “utilization by TdT (elongation of 14-mer DNA substrate)” value in data set [3] (100 μM nucleotide, 6 units TdT, 1.5 μM 14-mer (FIG. 2B)) is “utilized by TdT as efficiently as the natural purines”. Moreover, the “extension by TdT beyond the incorporated nucleotide” value in [3] (100 μM nucleotide, 14-mer DNA, gel (FIG. 2B)) was “rivals that of the natural purines”. Also, in [3] (6 units TdT), the Km is 4.6 ± 0.6 µM and the Vmax turned out to be 11.5 ± 0.4 nM/s.
Take `Nc1nc2c(ncn2[C@H]2C[C@H](O)[C@@H](COP(=O)(O)OP(=O)(O)OP(=O)(O)O)O2)c(=O)[nH]1` [dGTP]: in data set [3] (6 units TdT), the Km stood at 8 ± 0.9 µM and the Vmax is 29.2 ± 1.1 nM/s.
The matching figures for `Nc1ncnc2c1ncn2[C@H]1C[C@H](O)[C@@H](COP(=O)(O)OP(=O)(O)OP(=O)(O)O)O1` [dATP]: 1.5 ± 0.4 µM and 3.3 ± 0.3 nM/s.
One may read the IC50 as the concentration that gives 50% inhibition. A high value points to lower potency. Consider `O=[N+]([O-])c1ccc2c(ccn2[C@H]2C[C@H](O)[C@@H](CO)O2)c1` [5-NIdR, 5-nitroindolyl-2′-deoxynucleoside, reference compound], for which, in data set [4] (setting [11]), the IC50 is on record as >>100 μg mL^−1 and the LD50 was >>100 μg mL^−1. In data set [4] (Loucy, 100 μg mL^−1), the “increase in the number of non-viable cells” value is given as “does not cause a substantial increase” and the “reduction in the number of viable cells” value was under 25%. Moreover, in [5], the IC50 is over 100 µg/mL and the LD50 is >>100 μg mL^−1. The “PI uptake (necrotic cell death)” value in [6] (MOLT4) is listed as “no significant PI uptake”. Besides, in data set [6] (MOLT4, 100 μg mL^−1), the “Early apoptoic cells (%)” value worked out at 26.5 ± 3.7%, the “Late apoptoic cells (%)” value amounted to 18.9 ± 3.4%, the “Necrotic cells (%)” value is 1.5 ± 0.5% and the “Viable cells (%)” value was 53.1 ± 6.7%. For the same compound, in [6] (setting [12]), the “increase in early stage apoptosis” value was determined as 5 fold and the “increase in late stage apoptosis” value is listed as 5 fold. This compound had an AlexaFluor488 staining in data set [1] (100 μg mL^−1, 2 days, cell line not given) of under 0.5%. Besides, in [7] (setting [13]), the “increase in the number of non-viable cells” value was 2.5 fold and the “reduction in the number of viable cells” value is given as about 5 fold. In data set [7] (MOLT4, up to 72 h), this compound showed an IC50 of 34 ± 6 µg/mL (≈ 122 µM) and an LD50 of about 100 µg/mL. In data set [8], the IC50 is about 100 µg/mL (≈ 359 µM) and the LD50 is >>100 μg mL^−1. Moreover, in data set [9], the IC50 is about 100 µg/mL (≈ 359 µM) and the LD50 was >>100 μg mL^−1. Further, in data set [10], the IC50 was about 100 µg/mL (≈ 359 µM) and the LD50 is >>100 μg mL^−1.
